Consider eleven compounds from ChEMBL document CHEMBL1201862, “PubChem BioAssay data set” (2004).

Experiment in all cases: NCI-60 cell line screen, 48 h
Assay [1] deals with RPMI-8226.
In assay [2] the test system is SF-268.
For assay [3], the system named is SK-MEL-5.
In assay [4] the test system is PC-3.
The test system of assay [5] is ACHN.
For assay [6], the system named is T47D.
In assay [7] the test system is U-251.
The subject of assay [8] is MDA-N.
For assay [9], the system named is HL-60.
Assay [10] relates to DU-145.
Assay [11] relates to Hs-578T.
Assay [12] relates to SNB-75.
Assay [13] relates to SK-OV-3.
Assay [14] relates to NCI-H522.
For assay [15], the system named is SK-MEL-2.
The test system of assay [16] is MCF7.
Assay [17] relates to SW-620.
The subject of assay [18] is MDA-MB-435.
The subject of assay [19] is MDA-MB-231.
Assay [20] deals with OVCAR-3.

SMILES strings stand for the structures.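 96-well plates; 48 h exposure; 5 concentrations. Endpoints by linear interpolation between flanking doses. Not reached: highest tested concentration assigned. Here, GI50 denotes the concentration required for 50% inhibition of growth.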 Calls of active or inactive are those of the source. Cut-off read from the data, not from the text of the source: active = GI50 up to about 1.1 µM and inactive = higher.

Turning to `COc1cccc(-c2cc(O)c3cc(N4CCN(C)CC4)ccc3n2)c1`, the GI50 in [1] is 3.35 µM (inactive); in assay [2] it was 1.91 µM (inactive); in assay [3] it was 0.454 µM (active); in [4], 2.44 µM (inactive); in assay [5], 5.25 µM (inactive); in assay [6], > 10 µM (inactive). The GI50 in [7] was 0.785 µM (active); in [8] it was 0.265 µM (active); in [9], 0.537 µM (active); in assay [10], 3.21 µM (inactive); in [11] it was 0.774 µM (active); in assay [12], 5.3 µM (inactive). For the same compound, the GI50 in assay [13] is 2.82 µM (inactive); in [14], 1.57 µM (inactive); in assay [15], 1.19 µM (inactive); in assay [16], 2.67 µM (inactive); in [17], 0.522 µM (active); in assay [18], 0.225 µM (active). Moreover, the GI50 in assay [19] is 3.34 µM (inactive).
Take `CCNC(=O)c1cc(Cl)ccc1NC(=O)C12CC3CC(CC(C3)C1)C2`: the GI50 in [1] was 24.5 µM (inactive); in assay [2], > 100 µM (inactive); in [3], 30.1 µM (inactive); in assay [4] it was 32.1 µM (inactive); in assay [5] it was 44.1 µM (inactive); in [20] it was 36.1 µM (inactive). For the same compound, the GI50 in assay [6] is 34.5 µM (inactive); in assay [7], 34.5 µM (inactive); in assay [8] it was 22.5 µM (inactive); in assay [9], 25.5 µM (inactive); in assay [10] it was 28.4 µM (inactive); in [11], > 100 µM (inactive). Also, the GI50 in [14] is 75.5 µM (inactive); in assay [15], 23.1 µM (inactive); in assay [16], 39.1 µM (inactive); in [17], 47.2 µM (inactive); in [18], 29 µM (inactive); in assay [19] it was 71.8 µM (inactive).
`O=C(O)c1cccc2c1/C(=N/Nc1ccccc1)CC2`: the GI50 in assay [1], in [2], in assay [3], in [4], in assay [5] and in assay [20] was > 100 µM (inactive) each time. The GI50 in assay [6] was 9.84 µM (inactive); in [7] it was > 100 µM (inactive); in [8], > 100 µM (inactive); in assay [10], > 100 µM (inactive); in assay [11], > 100 µM (inactive); in assay [13] it was > 100 µM (inactive). For the same compound, the GI50 in assay [14] was > 100 µM (inactive); in assay [15] it was 66.8 µM (inactive); in [16] it was 45.1 µM (inactive); in assay [17], > 100 µM (inactive); in assay [18], > 100 µM (inactive); in assay [19], > 100 µM (inactive).
Take `COC1(OC)c2no[n+]([O-])c2CCC1O` (centres undefined): the GI50 in [1], in [2], in assay [3], in assay [4], in [5] and in [20] was > 100 µM (inactive) each time. The GI50 in assay [6], in [8], in assay [10], in assay [11], in [13] and in assay [14] was > 100 µM (inactive) each time. The GI50 in assay [15], in [16], in assay [17], in [18] and in assay [19] was > 100 µM (inactive) each time.
In the case of `CCOc1ccc(NC(=S)N/C=C(/C(C)=O)C(=O)Nc2ccccc2C)cc1`, the GI50 was 7.35 µM (inactive) in assay [1]; > 100 µM (inactive) in [2]; > 100 µM (inactive) in assay [3]; > 100 µM (inactive) in assay [4]; > 100 µM (inactive) in assay [5]; > 100 µM (inactive) in assay [20]. Further, the GI50 in assay [6], in [7], in assay [8], in assay [9], in assay [10] and in assay [11] was > 100 µM (inactive) each time. Further, the GI50 in assay [13], in assay [14], in assay [15], in [16], in assay [17] and in assay [18] was > 100 µM (inactive) each time. In assay [19], the GI50 is > 100 µM (inactive).
For `O=c1oc2ccc([N+](=O)[O-])cc2c(Nc2ccc3c(c2)Oc2ccccc2O3)c1[N+](=O)[O-]`, the GI50 in [1] is 23.3 µM (inactive); in assay [2], 48.1 µM (inactive); in assay [3] it was 29.1 µM (inactive); in assay [4], 25 µM (inactive); in [5], 32.2 µM (inactive); in assay [20] it was 47.3 µM (inactive). The GI50 in [6] is 50.2 µM (inactive); in [7], 18.9 µM (inactive); in assay [8], 36.2 µM (inactive); in assay [9], 21.3 µM (inactive); in assay [10], 59.7 µM (inactive); in [11], 44.3 µM (inactive). Moreover, the GI50 in assay [12] is 40.9 µM (inactive); in assay [13], 41.4 µM (inactive); in assay [14] it was 35.5 µM (inactive); in assay [15], 21.3 µM (inactive); in [16], 26.5 µM (inactive); in assay [18], 37.1 µM (inactive). Moreover, the GI50 in [19] is 19.1 µM (inactive).
Regarding `CC1=NN(c2cccc(Cl)c2)C2(SCC(=O)N2c2nc3ccccc3s2)C1=CC=Cc1ccccc1` (centres undefined), the GI50 is 23 µM (inactive) in [1]; 31.6 µM (inactive) in assay [2]; 18.9 µM (inactive) in assay [3]; 29.7 µM (inactive) in assay [4]; 22.3 µM (inactive) in assay [5]; 39.6 µM (inactive) in assay [20]. Further, the GI50 in assay [6] was 34.4 µM (inactive); in assay [7] it was 17.8 µM (inactive); in [8] it was 34.1 µM (inactive); in assay [9], 1.47 µM (inactive); in assay [10], 21.3 µM (inactive); in assay [11], 27.7 µM (inactive). Besides, the GI50 in assay [13] is 27.4 µM (inactive); in [14], 26.7 µM (inactive); in assay [15] it was 21.7 µM (inactive); in assay [16] it was 25.5 µM (inactive); in [17], 26.3 µM (inactive); in assay [18] it was 31 µM (inactive). Also, the GI50 in [19] is 27.9 µM (inactive).
Take `O=C(NC(=S)Nc1ccc(Br)cc1)c1ccc2c(c1)Sc1ccccc1O2`: the GI50 in assay [2] is 48.3 µM (inactive); in assay [3], > 100 µM (inactive); in assay [4], > 100 µM (inactive); in [5], 60.1 µM (inactive); in assay [20], > 100 µM (inactive); in assay [6], 63.7 µM (inactive). For the same compound, the GI50 in [7] was 37 µM (inactive); in [8], > 100 µM (inactive); in [9], > 100 µM (inactive); in [10], > 100 µM (inactive); in assay [11], 45.7 µM (inactive); in assay [12], 3.04 µM (inactive). For the same compound, the GI50 was 40.2 µM (inactive) in [13]; > 100 µM (inactive) in assay [14]; > 100 µM (inactive) in assay [15]; > 100 µM (inactive) in [16]; > 100 µM (inactive) in assay [17]; > 100 µM (inactive) in assay [18]. In addition, in [19], the GI50 is 58.6 µM (inactive).
On to `CCCCNC(=O)c1cc(S(=O)(=O)n2ccnc2O)c(SC)cc1Cl`, for which the GI50 in [1] was > 100 µM (inactive); in assay [2] it was > 10 µM (inactive); in assay [3], > 100 µM (inactive); in assay [4] it was > 100 µM (inactive); in assay [5] it was > 100 µM (inactive); in assay [20] it was > 100 µM (inactive). The GI50 in [6], in assay [7], in [8], in assay [9], in assay [10] and in assay [11] was > 100 µM (inactive) throughout. In addition, the GI50 in assay [13], in [14], in assay [15], in assay [16], in assay [17] and in assay [18] was > 100 µM (inactive) throughout. Moreover, in [19], the GI50 was > 100 µM (inactive).
Consider `CCCCCCCC(CC(=O)NC(CO)C(=O)NC(CO)CC(C)C)OC(=O)CC(CCCCCCC)OC(=O)CC(CCCCCCC)OC1OC(C)C(O)C(OC2OC(C)C(OC(C)=O)C(O)C2O)C1O` (centres undefined), for which the GI50 in assay [2] was 8.28 µM (inactive); in assay [3] it was 10 µM (inactive); in assay [4], 4.04 µM (inactive); in assay [5], 15.7 µM (inactive); in assay [20], 11.8 µM (inactive); in assay [6], 9.14 µM (inactive). For the same compound, the GI50 was 4.41 µM (inactive) in [7]; 3.4 µM (inactive) in assay [8]; 2.92 µM (inactive) in [9]; 11.8 µM (inactive) in assay [10]; 4.22 µM (inactive) in assay [11]; 4.59 µM (inactive) in [12]. The GI50 in assay [13] was 16.3 µM (inactive); in assay [14] it was 11.7 µM (inactive); in assay [16] it was 11.1 µM (inactive); in [17], 10.7 µM (inactive); in assay [18], 6.53 µM (inactive); in [19] it was 7.91 µM (inactive).
Consider `Cc1n[nH]c(=O)n1/N=C/c1cccnc1`, for which the GI50 in assay [1], in assay [2], in [3], in assay [4], in [5] and in [20] was > 100 µM (inactive) each time. The GI50 in assay [6], in [7], in assay [8], in [9], in assay [10] and in assay [11] was > 100 µM (inactive) in each case. Further, the GI50 in assay [13], in assay [14], in [15], in [16], in assay [17] and in assay [18] was > 100 µM (inactive) throughout. Moreover, in [19], the GI50 is > 100 µM (inactive).
